Measurements as given in patent publication US20140221656A1, “CRYSTALLINE SOLVATES OF 6-(PIPERIDIN-4-YLOXY)-2H-ISOQUINOLIN-1-ONE HYDROCHLORIDE” (SANOFI, priority 2011, published 2014).
“Also recorded” adds a separate entry of the source. Where a name gives a salt, the structure may show the parent alone.

Legend:
Assay type in all cases: physicochemical
[1] = Thermogravimetric analysis (TGA)
Method: On heating the dihydrate in a dry environment, a significant weight loss starts already at slightly elevated temperature and ends at about 110° C.
In this temperature range, transformation to phase 3 was observed as determined by XRPD.
The thermogravimetric analyses were performed with a METTLER TGA851e (module TGA/SDTA851e/SF1100/042). 100 μl Al crucibles sealed with lid were used. The sample changer punches a pinhole into the lid immediately before the start of the measurement. The oven cell is purged with a nitrogen gas flow of about 50 mL/min. The measurements typically start with a hold time of about 25 min at 25° C., followed by heating of the sample with a rate of 10°/min. Temperature and weight loss were checked by a calcium oxalate hydrate reference sample.

[2] = Dynamic vapor sorption (DVS) water vapor sorption and desorption isotherms; settings: DVS 25° C.; for hygroscopicity / water content as a function of relative humidity: FIG. 13 and 14
Method: Moreover, the dihydrate may also be characterized by its DVS (dynamic vapor sorption) water vapor sorption and desorption isotherms measured at 25° C. as shown in FIG. 3. Before starting the sorption cycle the dihydrate probe is treated with dry nitrogen gas resulting in a transformation into phase 2 as shown by humidity resolved XRPD. […] In the sorption cycle the water content of the probe quickly increases when phase 2 is exposed to relative humidities between 1 and 20% and remains almost constant between 20 and 95%. In the desorption cycle the water content remains almost constant when the dihydrate is exposed to relative humidities between 95% and 20%. A weight loss starts below 20% relative humidity and becomes strong below 10%, especially below 5%. The change in mass at low relative humidity is completely reversible and when the humidity increases again, the rehydration proceeds rapidly with small samples. However, for bulk samples rehydration of over-dried samples can take considerably longer and rehydration may require several days. Almost identical water sorption and desorption isotherms are observed at 40° C.
With decreasing humidity the dihydrate converts back at low humidity (below about 10% r.h.) into phase 2 (cycle 1, desorption). Phase 2 then converts into the dihydrate with increasing humidity and along the same isotherm it converts back with decreasing humidity into polymorph 2 (cycle 2, see also FIG. 3)
Moisture sorption/desorption isotherms were recorded on a DVS-1 from Surface Measurement Systems. […] Typical total measurement times for both cycles are about 20-30 hours.

[3] = Maturation experiments (slurry conversion), relative stability of polymorphs and hydrate; settings: for relative thermodynamic stability among the phases: suspensions of phase mixtures in dry organic solvents, 0 to 40° C., hydrochloride
Method: By maturation experiments (slurry conversion) at the given temperature the relative stability of the polymorphs of compound (I) and the hydrate was investigated.
The following maturation experiment was performed by stirring the suspension under the specified conditions, starting from the dihydrate. The sample was investigated by XRPD in suspension, after vacuum filtration as well as after drying over night at 40° C. in vacuum (<50 mbar). The isolated material was also investigated by DSC and TGA.
(a) Maturation of 0.210 g dihydrate of compound (I) in 0.4 mL of water at 20° C. for 35 days. Similar, maturation of the dihydrate was done in water/methanol (vol/vol 1:1) and in water/ethanol (vol/vol 1:1).
The following maturation experiments were performed by stirring the suspension under the specified conditions and isolating the solid by vacuum filtration, starting from dihydrate of compound (I). The sample was investigated by XRPD in suspension, after vacuum filtration as well as after drying. The isolated material was also investigated by DSC and TGA.
(b) Maturation of 0.203 g of dihydrate of compound (I) in 1.2 mL of methanol at 20° C. for 35 days.
(c) Maturation was also done as in (b) by using ethanol, 1-propanol or 2-propanol.
(d) Maturation of […] of dihydrate of compound (I) in 2.0 mL of 2-butanol at 20° C. for 35 days.
The following maturation experiments of suspensions of phase mixtures of the dihydrate of compound (I) and phases consisting of polymorphs 1, 3 and 4 were performed at 0, 20 and 40° C. The product was isolated by vacuum filtration and analyzed after drying.
(e) Maturation of a mixture of 0.3 mg phase 1, 23.9 mg phase 3, 29.9 mg phase 4 and 27.9 mg of the dihydrate in 0.7 mL 2-propanol at 0° C. for 2 weeks.
(f) Maturation of a mixture of 0.3 mg phase 1, 27.2 mg phase 3, 18.1 mg phase 4 and 29.6 mg of the dihydrate in 2.0 mL 2-butanol at 0° C. for 2 weeks.
(g) Similar experiments as in e) and f) were done with corresponding mixtures of phase 1, phase 3, phase 4 and the dihydrate in 2-propanol and 2-butanol at 20° C. and at 40° C., respectively.

[4] = Humidity-controlled XRPD in a humidity chamber; settings: for time until transformation into the dihydrate at 95% relative humidity: held at 95% r.h., hydrochloride
Method: When humidity-controlled XRPD was performed at 25 and 40° C., widely identical results were obtained.
Exposure to elevated humidity causes transformation to the dihydrate as determined with humidity-controlled XRPD performed at 25° C. […] Phase 1 transformed into the dihydrate after about 15 min at 95%, which in turn changed to phase 2 after about 40 min at 2% r.h.
Exposure to elevated humidity causes transformation to the dihydrate as determined by humidity-controlled XRPD at 25° C. […] As a result phase 3 transformed into the hydrate after about 30 min at 95%, which in turn changed to phase 2 after about 30 min at 2% r.h.
Exposure to elevated humidity causes transformation to the dihydrate as determined by humidity-controlled XRPD. […] As a result phase 4 transformed into the dihydrate after about 15 min at 95%, which in turn changed to phase 2 after about 20 min at 2% r.h.
(§1) All X-ray powder diffraction was performed with Stoe Stadi-P transmission diffractometers using CuKα1 radiation (Lambda is 1.54060 Angström). For room temperature powder diffraction, linear position sensitive detectors were used; while for temperature-resolved XRPD image plate position sensitive detectors (IP-PSDs) were used. Unless stated otherwise, X-ray powder diffraction was performed at room temperature. Dry samples were investigated in a flat preparation whereas suspensions were investigated in quartz glass capillaries. The measured data were evaluated and plotted with the Software WinXPOW V2.12.

[5] = Suspension in water, transformation into the dihydrate
Method: (§2) Also storage of phase 3 at 20° C. and 75% relative humidity caused complete conversion to the dihydrate within 3 weeks. The rate of conversion correlates with the relative humidity. When suspended in water, complete transformation into the dihydrate was observed almost immediately (<10 min).

[6] = Storage at 20° C. and 75% relative humidity
Method: Also storage of phase 1 at 20° C. and 75% relative humidity caused complete conversion to the dihydrate within 3 weeks. The rate of conversion correlates with the relative humidity.
as §2
Also storage of phase 4 at 20° C. and 75% relative humidity caused complete conversion to the dihydrate within 3 weeks. The rate of conversion apparently correlates with the relative humidity.

[7] = Stability of the solvate outside the mother liquor; settings: in the presence of humidity starts to transform to the hydrate
Text: Thus, a further aspect of the present invention relates to the use of the methyl acetate solvate of compound (I) for the production of the hydrate, for example by subjecting it to conditions, such as an elevated temperature and/or humidity which facilitate the loss of methyl acetate and attracting water.

[8] = Storage under usual storage conditions (25° C./65% relative humidity)
Method: Moreover, the corresponding amorphous material is hygroscopic and the water content varies much stronger with the relative humidity compared to the dihydrate. This water uptake and variability in water content makes precise dosing during drug product manufacturing difficult. In contrast, the dihydrate has been proven to be stable for more than two years under usual storage conditions (no detectable decomposition at 25° C./65% relative humidity). Accordingly, the crystalline dihydrate is therefore the preferred solid form for drug product manufacturing.

[9] = Drying of the dihydrate, retention of crystal structure; settings: dried dihydrate
Text: In a further embodiment of the hydrate the water content is 11.4% (w/w). in a further embodiment the hydrate contains 2.0 molecules water per molecule (I). Although the hydrate phase typically contains about 10-12.5% water it can also occur with lower water content. The crystal structure of the hydrate remains even if the dihydrate is dried and the remaining water content is down to about 3%. Water uptake is reversible if humidity in the environment is raised again. The water content in the isolated product depends on the drying conditions used during work up of the hydrate after crystallisation.

[10] = Temperature-resolved XRPD
Method: Based on these findings the dihydrate is stable below 90° C. and thus also at room temperature. Therefore, in comparison to the other described anhydrous polymorphs, the dihydrate is particularly suitable when a high stability is desired. It is the only one that can be stored at relative humidities between 20 and 95% in different environments below 90° C., which are usual storage conditions, without the risk of transformation into another described crystalline phase. Even if exposed to a very dry environment, a possible water loss is reversible and the missing water is gained back once the compound is back in an environment having usual humidity conditions. Therefore, the dihydrate is in particular suitable for the preparation of medicaments and pharmaceutical compositions with improved stability.
as §1, with “Dry samples were investigated in a flat preparation whereas suspensions were investigated in quartz glass capillaries.” left out

Compound: O=c1[nH]ccc2cc(OC3CCNCC3)ccc12 [1,4-dioxane solvate, 6-(Piperidin-4-yloxy)-2H-isoquinolin-1-one hydrochloride×0.5 1,4-dioxane solvate]
- stability of the solvate (in words) ([1]; from TGA / temperature-resolved XRPD): relatively stable
- TGA weight loss ([1]; mainly in a temperature range from 80 to 120° C.): 16.6%

Compound: O=c1[nH]ccc2cc(OC3CCNCC3)ccc12 [amorphous material, 6-(Piperidin-4-yloxy)-2H-isoquinolin-1-one hydrochloride]
- hygroscopicity / water content as a function of relative humidity ([2]; hydrochloride): hygroscopic

Compound: O=c1[nH]ccc2cc(OC3CCNCC3)ccc12 [phase 3, 6-(Piperidin-4-yloxy)-2H-isoquinolin-1-one hydrochloride]
- relative thermodynamic stability among the phases [3]: thermodynamically most stable anhydrous form; also recorded: most stable anhydrous phase
- relative humidity above which phase changes into the dihydrate ([2]; cycle 1, sorption): above 80%
- time until transformation into the dihydrate at 95% relative humidity ([4]; humidity-controlled XRPD): about 30 min
- time to complete transformation into the dihydrate when suspended in water [5]: < 10 min
- time to complete conversion to the dihydrate on storage [6]: ≤ 3 weeks

Compound: O=c1[nH]ccc2cc(OC3CCNCC3)ccc12 [phase 4, 6-(Piperidin-4-yloxy)-2H-isoquinolin-1-one hydrochloride]
- relative thermodynamic stability among the phases [3]: only a metastable one
- time until transformation into the dihydrate at 95% relative humidity ([4]; humidity-controlled XRPD): about 15 min
- time to complete conversion to the dihydrate on storage [6]: ≤ 3 weeks

Compound: O=c1[nH]ccc2cc(OC3CCNCC3)ccc12 [phase 1, 6-(Piperidin-4-yloxy)-2H-isoquinolin-1-one hydrochloride]
- relative thermodynamic stability among the phases [3]: only a metastable polymorph
- time until transformation into the dihydrate at 95% relative humidity ([4]; humidity-controlled XRPD): about 15 min
- time to complete conversion to the dihydrate on storage [6]: ≤ 3 weeks

Compound: O=c1[nH]ccc2cc(OC3CCNCC3)ccc12 [methyl acetate solvate, 6-(Piperidin-4-yloxy)-2H-isoquinolin-1-one hydrochloride]
- stability outside the mother liquor (in words) [7]: only moderately stable

Compound: O=c1[nH]ccc2cc(OC3CCNCC3)ccc12 [dihydrate, 6-(Piperidin-4-yloxy)-2H-isoquinolin-1-one hydrochloride dihydrate]
- time proven stable under usual storage conditions (no detectable decomposition) [8]: more than two
- solid phase after maturation in 2-butanol ([3]; 2-butanol, 20° C., 35 days, after drying): Polymorph 4 was obtained
- solid phase after maturation in alcohols ([3]; methanol, ethanol, 1-propanol or 2-propanol, 20° C., 35 days): polymorph 3 was obtained
- solid phase after maturation in aqueous media ([3]; water, water/methanol 1:1, water/ethanol 1:1, 20° C., 35 days): remained as dihydrate
- hygroscopicity / water content as a function of relative humidity ([2]; hydrochloride dihydrate): maintains a quite constant water content
- relative humidity below which the dihydrate converts into phase 2 ([2]; cycle 1, desorption): below 10 % r.h.
- relative humidity below which weight loss starts ([2]; desorption cycle): below 20%
- remaining water content down to which the hydrate crystal structure remains on drying [9]: about 3%
- relative humidity at which the hydrate reversibly transforms into phase 2 ([4]; humidity chamber XRPD, r.h. cycled between 2% and 95%): 2 % r.h.
- time until the dihydrate changed to phase 2 at 2% r.h. ([4]; humidity-controlled XRPD, held at 2% r.h., hydrochloride dihydrate): about 30 min
- TGA weight loss (water) on heating ([1]; heating in a dry environment, ends at about 110° C.): 10.8 mass-%
- temperature below which the form is stable ([10]; based on temperature-resolved XRPD findings): below 90 °C
- temperature at which transformation to phase 3 starts ([10]; heating, accompanied by loss of water): about 90 °C
